Assay results reported in patent US10689622B2, “Culture medium for proliferating stem cell, which contains sulfated compound” (AJINOMOTO CO., INC., priority 2012, dated 2020).

Legend:
bFGF [1] = target: T1, bFGF (Homo sapiens, UniProt P09038); assay: Evaluation of bFGF stabilization in Essential 8 medium (ELISA); assay type: biochemical; conditions: 37° C. for 7 days
T1 construct: purchased Lonza (via TAKARA BIO INC.) Ser. No. 00/190,632
In short: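 Test compound in PBS diluted 10-fold into serum-free medium (Essential 8 or ReproFF2), held sealed at 37° C for 7 days; remaining bFGF quantified by ELISA against a standard curve. Controls: PBS without compound diluted into each medium, held 7 days at 37° C or 4° C.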

[2] = tested on: Human bone marrow-derived mesenchymal stem cells; assay: Mesenchymal stem cell proliferation system (cell number by DNA quantification); conditions: for effectiveness cells: growth of mesenchymal stem cell, control ratio
[3] = Measurement of content level of sulfur in test compound (ICP); assay type: physicochemical; conditions: ICPS-8100, evaluation samples containing 0.01 wt % test compound
Text: (§1) The content level of sulfur in the sulfated saccharide is generally not less than 5 wt %, preferably not less than 10 wt %, more preferably not less than 15 wt %, and the upper limit is generally not more than 40 wt %, preferably not more than 35 wt %, more preferably not more than 30 wt %. […] Here, the content level of sulfur is a proportion in wt % of sulfur derived only from the sulfate group in sulfated saccharides, which can be measured by a method known in the field (e.g., rhodizonate method, elemental analysis or luminescent spectral analysis).
as §1, with “polymer” for “saccharide”, “wt” for “wt %, preferably not more than 35 wt %, more preferably not more than 30 wt”, “in” for “derived only from”, “the” for “the sulfate group in”, “polymer,” for “saccharides,”, “such as” for “(e.g.,”
The relationship between the content level of sulfur in a test compound (sulfur content) and the cell proliferation promoting effect was examined. The sulfur content was measured using ICPS-8100 manufactured by SHIMADZU CORPORATION and analyzed using ICPS-8000 series Ver1.03. As the reference standard of sulfur, the standard for ICP-MS manufactured by Accu Standard was used. Sulfur reference standard solutions (0, 1, 10, 30, 50 ppm) were prepared, and the sulfur content of the evaluation samples containing 0.01 wt % test compound was measured by an analytical curve method.

bFGF [4] = target: T1, bFGF; assay: Evaluation of bFGF stabilization in Lonza serum-free medium (ELISA); assay type: biochemical; conditions: for effectiveness ELISA: effectiveness in ELISA evaluation of mesenchymal stem cells (medium), 4° C. control ratio
In short: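 Compound in PBS diluted 10-fold into serum-free medium and held sealed at 37 °C for 7 days (some sets 3 days). Remaining bFGF quantified by human bFGF sandwich ELISA against a standard curve. Controls were compound-free PBS-medium kept at 37 °C or 4 °C for the same period.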

iPS cell 201B7 strain = assay: iPS cell proliferation system (cell number); assay type: cell-based, human; conditions: matrigel, Essential-8 medium
Procedure: The cell proliferation effect of various test compounds was evaluated using artificial pluripotent stem cell (iPS cell). 201B7 strain purchased from iPS Academia Japan, Inc. was grown in a culture container coated with a basal lamina matrix (matrigel manufactured by Nippon Becton Dickinson Company, Ltd., or a fragment containing an active domain of laminin 511 purchased from OSAKA UNIVERSITY) (Becton, Dickinson and Company, Falcon culture petri dish or Falcon culture plate), contained in a feeder-free medium for human ES/iPS cell (ReproCELL Inc, ReproFF2).
In this medium were suspended iPS cells in colony state, and a 2.5- to 3.5-fold diluted amount of the original culture was plated on a 6-well culture plate coated with a basal lamina matrix (Nippon Becton Dickinson Company, Ltd., Falcon culture plate). […] After culturing for 6 to 12 days, the medium was removed, the cells were detached from the culture plate by a trypsin-EDTA (Sigma-Aldrich Ltd.) or TrypLE Select (Invitrogen) treatment and the cell number was measured. The cell number was measured by the method described in “Kaitei Saibou baiyou Nyuumon Note, page 77-83, 2010, YODOSHA CO., LTD.” which is incorporated herein by reference in its entirety.
When the cells were seeded in a dissociation state of the cells (single cell state), a test compound solution after filter sterilization was added to a medium containing Y-27632 (Nacalai Tesque) to a given concentration, and dispensed to a 6 well culture plate. Thereto were plated iPS cells suspended in a medium containing Y-27632 at 100,000 cells/well, and cultured for 6 to 8 days. On the next day of seeding, the medium was exchanged to a medium (without Y-27632) added with the test compound alone. When medium exchange was necessary, the medium was exchanged every 2 or 3 days. […] After culturing for 6 to 8 days, the cell number was measured by a method similar to that mentioned above.
When the evaluation was performed in Essential 8 medium (Invitrogen), which is a different feeder-free medium for iPS cell, iPS cells cultured in a medium obtained by adding human serum albumin (Sigma-Aldrich Co. LLC) to Essential 8 medium were used.

[5] = Lonza serum-free medium, 37° C. for 7 days, test compound 25 ng/ml
[6] = Lonza serum-free medium, 37° C. for 7 days, test compound 250 ng/ml
[7] = Lonza serum-free medium, 37° C. for 7 days, test compound 25 μg/ml
[8] = Lonza serum-free medium, 37° C. for 7 days, test compound 250 μg/ml

T1 sequence (P09038 143-288): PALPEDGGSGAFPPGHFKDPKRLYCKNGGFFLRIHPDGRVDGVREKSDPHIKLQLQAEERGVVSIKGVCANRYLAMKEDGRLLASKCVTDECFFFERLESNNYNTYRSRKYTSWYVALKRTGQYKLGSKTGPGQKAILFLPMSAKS

Row | concentration showing a suppressive effect on a decrease in the bFGF concentration of the medium (bFGF [1]) | sulfur content Found (inorganic analysis) [3] [wt %] | effectiveness ELISA (bFGF [4]) | Substance | bFGF concentration relative to that of 4° C. control (ELISA) (bFGF [1]; test compound 250 pg/ml) | bFGF concentration relative to that of 4° C. control (ELISA) (bFGF [1]; test compound 25 ng/ml) | bFGF concentration relative to that of 4° C. control (ELISA) (bFGF [1]; test compound 250 ng/ml) | bFGF concentration relative to that of 4° C. control (ELISA) (bFGF [1]; test compound 25 μg/ml) | bFGF concentration relative to that of 4° C. control (ELISA) (bFGF [1]; test compound 250 μg/ml) | effectiveness cells [2] | bFGF concentration relative to that of 4° C. control (ELISA) (bFGF [4]; [5]) | bFGF concentration relative to that of 4° C. control (ELISA) (bFGF [4]; [6]) | bFGF concentration relative to that of 4° C. control (ELISA) (bFGF [4]; [7]) | bFGF concentration relative to that of 4° C. control (ELISA) (bFGF [4]; [8]) | further results
1 | not less than 25 μg/ml | 14 | ++ (++ 50%<) | gluconolactone-SO3Na | x (bFGF concentration was less than 10% relative to that of 4 °C control) | x (bFGF concentration was less than 10% relative to that of 4 °C control) | x (bFGF concentration was less than 10% relative to that of 4 °C control) | ++ (bFGF concentration was not less than 50% and less than 70% relative to that of 4 °C control) | +++ (bFGF concentration was not less than 70% relative to that of 4 °C control) | ◯ (◯ not leas than 100%) | x (bFGF concentration was less than 10% relative to that of 4 °C control) | x (bFGF concentration was less than 10% relative to that of 4 °C control) | ++ (bFGF concentration was not less than 50% and less than 70% relative to that of 4 °C control) | x (bFGF concentration was less than 10% relative to that of 4 °C control) | concentration at which a decrease in the protein amount of FGF is not suppressed (bFGF [4]; as shown in the Examples (methods of Examples I-1 and II-1)): not more than 2.5 μg/ml
2 | not less than 2.5 μg/ml | 17 | +++ (+++ 70%<) | maltitol SO3Na | x (bFGF concentration was less than 10% relative to that of 4 °C control) | x (bFGF concentration was less than 10% relative to that of 4 °C control) | x (bFGF concentration was less than 10% relative to that of 4 °C control) | + (bFGF concentration was not less than 30% and less than 50% relative to that of 4 °C control) | + (bFGF concentration was not less than 30% and less than 50% relative to that of 4 °C control) | ⊚ (⊚ not less than 120%) | x (bFGF concentration was less than 10% relative to that of 4 °C control) | ++ (bFGF concentration was not less than 50% and less than 70% relative to that of 4 °C control) | +++ (bFGF concentration was not less than 70% relative to that of 4 °C control) | ++ (bFGF concentration was not less than 50% and less than 70% relative to that of 4 °C control) | 
3 | not less than 250 ng/ml | 16 | +++ (+++ 70%<) | maltoheptaose SO3Na | x (bFGF concentration was less than 10% relative to that of 4 °C control) | x (bFGF concentration was less than 10% relative to that of 4 °C control) | + (bFGF concentration was not less than 30% and less than 50% relative to that of 4 °C control) | +++ (bFGF concentration was not less than 70% relative to that of 4 °C control) | +++ (bFGF concentration was not less than 70% relative to that of 4 °C control) | ⊚ (⊚ not less than 120%) | + (bFGF concentration was not less than 30% and less than 50% relative to that of 4 °C control) | x (bFGF concentration was less than 10% relative to that of 4 °C control) | +++ (bFGF concentration was not less than 70% relative to that of 4 °C control) | ++ (bFGF concentration was not less than 50% and less than 70% relative to that of 4 °C control) | concentration showing promoted cell proliferation as compared to the control ([2]; mesenchymal stem cells, Lonza serum-free medium): 250 ng/mL; number of cells relative to control (iPS cell 201B7 strain; test compound 25 ng/ml): ⊚ (not less than 120%: ⊚); number of cells relative to control (iPS cell 201B7 strain; test compound 250 ng/ml): — (100%-50%: —); concentration showing a suppressive effect on a decrease in the bFGF concentration in the medium (bFGF [4]; Lonza serum-free medium, 37° C. for 3 days): not less than 25 ng/ml; bFGF concentration relative to that of 4° C. control (ELISA) (bFGF [4]; Lonza serum-free medium, 37° C. for 3 days, test compound 25 ng/ml): − (bFGF concentration was not less than 10% and less than 30% relative to that of 4 °C control); bFGF concentration relative to that of 4° C. control (ELISA) (bFGF [4]; Lonza serum-free medium, 37° C. for 3 days, test compound 250 ng/ml): ++ (bFGF concentration was not less than 50% and less than 70% relative to that of 4 °C control); bFGF concentration relative to that of 4° C. control (ELISA) (bFGF [4]; Lonza serum-free medium, 37° C. for 3 days, test compound 25 μg/ml): ++ (bFGF concentration was not less than 50% and less than 70% relative to that of 4 °C control); bFGF concentration relative to that of 4° C. control (ELISA) (bFGF [4]; Lonza serum-free medium, 37° C. for 3 days, test compound 250 μg/ml): ++ (bFGF concentration was not less than 50% and less than 70% relative to that of 4 °C control)
4 | not less than 2.5 μg/ml | 17 | ++ (++ 50%<) | mannitol SO3Na | x (bFGF concentration was less than 10% relative to that of 4 °C control) | x (bFGF concentration was less than 10% relative to that of 4 °C control) | x (bFGF concentration was less than 10% relative to that of 4 °C control) | +++ (bFGF concentration was not less than 70% relative to that of 4 °C control) | +++ (bFGF concentration was not less than 70% relative to that of 4 °C control) | ◯ (◯ not leas than 100%) | + (bFGF concentration was not less than 30% and less than 50% relative to that of 4 °C control) | − (bFGF concentration was not less than 10% and less than 30% relative to that of 4 °C control) | + (bFGF concentration was not less than 30% and less than 50% relative to that of 4 °C control) | ++ (bFGF concentration was not less than 50% and less than 70% relative to that of 4 °C control) | 
